Measurements taken from patent publication US20130034522A1, “THERAPIES FOR TREATING HEPATITIS C VIRUS INFECTION” (priority 2010, published 2013).
Where two headings read alike, the source gives them in different places.

Legend:
[1] = Study VX-222-102 Part A: VX-222 for 3 days in HCV infected subjects (PK, safety); type: in vivo, human; conditions: for AUC(0-t) / concentration at 12 h / Cmax / Tmax / half-life: human, in vivo; for AUC(0-t): read-out: AUC0-12 hr Geometric Mean; for concentration at 12 h: read-out: C12 Geometric Mean; for Cmax: read-out: Cmax Geometric Mean; for half-life: read-out: T1/2 Arithmetic Mean (converted)
Protocol: In Part A of Study 102 subjects were randomized to VX-222 or placebo in a 6:2 (VX-222: placebo) allocation ratio to either Cohort 1, Cohort 2, Cohort 3, or Cohort 4. Subjects enrolled in Cohort 1, Cohort 2, and Cohort 3 were administered 250 mg, 500 mf, or 750 mg VX-222 or placebo twice daily (b.i.d.) for 3 days, respectively. Subjects enrolled in Cohort 4 were administered 1,500 mg VX-222 or placebo once daily (qd) for 3 days. Standard of care treatment, Peg-IFN-alpha-2a and RBV was offered to the subjects at the end of dosing in Part A for up to 48 weeks, if judged appropriate by the physician.
Additional results of Study VX-222-102 are described in FIGS. 2-8: Thirty-two treatment-naïve patients with chronic genotype 1 HCV infection were enrolled in the trial, including six patients in each dose group who received 250 mg of VX-222 BID, 500 mg of VX-222 BID, 750 mg of VX-222 BID, and 1,500 mg of VX-222 QD. Two patients received placebo in each of the four dosing groups, for a total of eight patients who received placebo. Part A of the trial was conducted at 10 centers in the United States, Canada and Argentina. Of the patients enrolled in the trial, 24 patients had genotype 1a HCV infection and eight patients had genotype 1b HCV infection. Six of the patients enrolled in the trial were African American, 25 were Caucasian and one was American Indian/Alaskan.
Multicenter, randomized, double-blinded, placebo-controlled, dose-ranging study • HCV genotype 1-infected patients • With no evidence of cirrhosis • ALT values <5×ULM • Plasma HCV RNA of >5 log10 IU/mL at screening • 4-arm comparative study (6:2 randomization VX-222: placebo) • Enrollment in this dosing—ranging study was sequential • 250 mg BID for 3 days • 500 mg BID for 3 days • 750 mg BID for 3 days • 1500 mg QD for 3 days.

[2] = system: genotype 1 chronic hepatitis C infection; assay: Study 101 Part C: pharmacodynamics of VX-222 (HCV plasma RNA); type: in vivo, Hepatitis C virus; conditions: 750 mg b.i.d. for 3 consecutive days, treatment-naïve genotype 1 subjects
Protocol: In Part C of Study 101, VX-222 was administered as multiple doses of 750 mg b.i.d. to treatment-naïve subjects with chronic hepatitis C for 3 days. In addition, in Part A of Study 102, VX-222 was administered as multiple doses ranging from 250 mg to 750 mg BID and 1500 mg once a day to treatment-naïve subjects with chronic hepatitis C for 3 days. A primary objective of Part C of Study 101 was to assess the pharmacodynamics of VX-222 in treatment-naïve subjects with genotype 1 chronic hepatitis C infection. The final pharmacodynamic parameters of VX-222 administered at 750 mg b.i.d. for 3 consecutive days are outlined below: • The mean untransformed baseline (Day 1) HCV plasma RNA level was 4962600 IU/mL (log10=6.4927). • The mean maximum reduction from baseline calculated using the log10 predose HCV plasma RNA on Days 2 to 4 was −3.6784. The correlation between the predose RNA levels and the amplitude of the reduction in log 10 HCV RNA was relatively weak.

[3] = Study VX-222-002: combination treatment with VX-222 and VX-950 in healthy subjects (PK, safety); conditions: for AUC(0-t) / Cmax / half-life: human, plasma, oral; for AUC(0-t) / Cmax: geometric mean (CV %)
[4] = PK parameters of VX-222 in Study 101 Part C and Study 102 Part A; type: in vivo, human
Protocol: In Part C of Study 101, VX-222 was administered as multiple doses of 750 mg b.i.d. to treatment-naïve subjects with chronic hepatitis C for 3 days. In addition, in Part A of Study 102, VX-222 was administered as multiple doses ranging from 250 mg to 750 mg BID and 1500 mg once a day to treatment-naïve subjects with chronic hepatitis C for 3 days.

[5] = all four dose groups, blinded pooled data placebo or VX-222
[6] = 250 mg, 250 mg b.i.d., Day 1, HCV infected subjects
[7] = 250 mg, 250 mg b.i.d., Day 3, HCV infected subjects
[8] = 500 mg, 500 mg b.i.d., Day 1, HCV infected subjects
[9] = 500 mg, 500 mg b.i.d., Day 3, HCV infected subjects
[10] = 750 mg, 750 mg b.i.d., Day 1, HCV infected subjects
[11] = 750 mg, 750 mg b.i.d., Day 3, HCV infected subjects
[12] = VX-222 400 mg BID with VX-950 1125 mg BID, Day 37, healthy subjects, fed
[13] = multiple doses, treatment-naïve chronic hepatitis C subjects

CC1CCC(C(=O)N(c2cc(C#CC(C)(C)C)sc2C(=O)O)C2CCC(O)CC2)CC1 (stereo not drawn) [VX-222, 5-(3,3-Dimethylbut-1-ynyl)-3-[(trans-4-hydroxycyclohexyl)-(4-trans methylcyclohexanecarbonyl)amino]thiophene-2-carboxylic acid]
severe or serious events ([1]; 250, 500 or 750 mg b.i.d. for 3 days, genotype 1 chronic hepatitis C subjects): no reported severe or serious events
VX-222 exposures versus dose ([1]; 250-750 mg BID and 1500 mg QD, FIG. 7): increased with doses in an approximately proportional manner
severe or serious adverse events [1, 5]: no severe or serious adverse events were reported
tolerability [1, 5]: well-tolerated
AUC(0-t) [1, 6]: 11700 ng·h/mL
concentration at 12 h [1, 6]: 858 ng/mL
Cmax [1, 6]: 1810 ng/mL
Tmax ([1]; 250 mg, 250 mg b.i.d., Day 1, HCV infected subjects, read-out: tmax Median): 6 h
AUC(0-t) [1, 7]: 19500 ng·h/mL
concentration at 12 h [1, 7]: 728 ng/mL
Cmax [1, 7]: 2960 ng/mL
Tmax ([1]; 250 mg, 250 mg b.i.d., Day 3, HCV infected subjects, read-out: tmax Median): 4 h
AUC(0-t) [1, 8]: 22900 ng·h/mL
concentration at 12 h [1, 8]: 767 ng/mL
Cmax [1, 8]: 4360 ng/mL
Tmax ([1]; 500 mg, 500 mg b.i.d., Day 1, HCV infected subjects, read-out: tmax Median): 3 h
AUC(0-t) [1, 9]: 29800 ng·h/mL
concentration at 12 h [1, 9]: 858 ng/mL
Cmax [1, 9]: 5040 ng/mL
Tmax ([1]; 500 mg, 500 mg b.i.d., Day 3, HCV infected subjects, read-out: tmax Median): 2.5 h
AUC(0-t) [1, 10]: 43600 ng·h/mL
concentration at 12 h [1, 10]: 1690 ng/mL
Cmax [1, 10]: 6520 ng/mL
Tmax ([1]; 750 mg, 750 mg b.i.d., Day 1, HCV infected subjects, read-out: tmax Median): 3 h
AUC(0-t) [1, 11]: 63000 ng·h/mL
concentration at 12 h [1, 11]: 1680 ng/mL
Cmax [1, 11]: 10300 ng/mL
Tmax ([1]; 750 mg, 750 mg b.i.d., Day 3, HCV infected subjects, read-out: tmax Median): 2 h
Tmax ([1]; post dose, 250-750 mg BID and 1500 mg QD, FIG. 7, read-out: Tmax): 2 to 6 h
half-life ([1]; 250 mg b.i.d., Day 3, HCV infected subjects): 4.1 h
half-life ([1]; 500 mg b.i.d., Day 3, HCV infected subjects): 4 h
half-life ([1]; 750 mg b.i.d., Day 3, HCV infected subjects): 3.5 h
mean maximum reduction from baseline, log10 predose HCV plasma RNA on Days 2 to 4 [2]: −3.6784
Tmax [3, 12]: 4 [4,6] hr
VX-222 plasma exposures ([3]; co-administered with VX-950, healthy subjects): increased
VX-222 administered with VX-950 versus VX-222 alone ([3]; healthy subjects): 2 fold
AUC(0-t) ([3]; 400 mg, AUC0-12, VX-222 400 mg BID alone, Day 10, healthy subjects, fed): 8560 ng·h/mL
Cmax ([3]; 400 mg, VX-222 400 mg BID alone, Day 10, healthy subjects, fed): 1770 ng/mL
half-life ([3]; 400 mg, T1/2, VX-222 400 mg BID alone, Day 10, healthy subjects, fed): 2.7 h
AUC(0-t) ([3]; 1000 mg, AUC0-12, VX-222 1000 mg BID alone, Day 10, healthy subjects, fed): 25800 ng·h/mL
Cmax ([3]; 1000 mg, VX-222 1000 mg BID alone, Day 10, healthy subjects, fed): 4120 ng/mL
half-life ([3]; 1000 mg, T1/2, VX-222 1000 mg BID alone, Day 10, healthy subjects, fed): 4 h
AUC(0-t) ([3]; AUC0-12, VX-222 400 mg BID with VX-950 1125 mg BID, Day 37, healthy subjects, fed): 29500 ng·h/mL
AUC(0-t) ([3]; AUC0-12, VX-222 1000 mg BID with VX-950 1125 mg BID, Day 37, healthy subjects, fed): 59900 ng·h/mL
Cmax [3, 12]: 3950 ng/mL
Cmax ([3]; VX-222 1000 mg BID with VX-950 1125 mg BID, Day 37, healthy subjects, fed): 8150 ng/mL
half-life ([3]; T1/2, VX-222 400 mg BID with VX-950 1125 mg BID, Day 37, healthy subjects, fed): 5.4 h
half-life ([3]; T1/2, VX-222 1000 mg BID with VX-950 1125 mg BID, Day 37, healthy subjects, fed): 3.5 h
VX-222 exposures versus dose ([4]; 250 to 750 mg b.i.d.): increased in an approximately dose proportional manner
mean t1/2 across doses ([4]; all doses): remained unchanged across all doses
VX-222 concentrations at the end of the dosing intervals ([4]; all subjects): > 319 ng/mL
accumulation index ([4]; b.i.d. regimens): around 2 fold
half-life ([4]; human, in vivo): ~5 h
Tmax ([4]; human, in vivo, read-out: median tmax at steady state): 2 to 6 h
exposures in treatment-naïve HCV subjects compared to healthy subjects ([4]; in vivo): around 2 fold
accumulation index for AUC [4, 13]: 1.90 fold
accumulation index for Cmax [4, 13]: 1.75 fold
time to steady state ([4]; repeated measure analyses): ≤ 3 days
